The record followed here is patent EP3426036B1, “CROP ENHANCEMENT” (priority 2016, dated 2017).

Each structure is given as a SMILES string.

The test system of this test is glutathione reductase. Nature of the test: Enzymatic analysis of soybean plants under drought conditions (Example 2a). The class given is in vivo. As to conditions: 0.75 l/ha at R1 or R3. Here is the method:
Soybean plants were grown in pots. The plants were treated at R1 (36 days after sewing) or R3 (44 days after sewing) with the compound of formula I at 0.75 l/ha. An untreated control plant was also included. After treatment, the plants were subjected to drought conditions until the end of the trial at day 65. Five replicates of the control and each treatment were harvested for analysis of yield and enzymatic activity.

On to `Cn1cc(C(=O)Nc2cccc3c2C2CCC3C2=C(Cl)Cl)c(C(F)F)n1` (stereo not shown) [Compound I, benzovindiflupyr], for which the “production of the enzyme glutathione reductase compared to the untreated control” value is listed as “increase in the production of the enzyme glutathione reductase”.
